Measurements reported in patent publication US12404279B2, “Deubiquitinase inhibitors and methods of use thereof” (Molecure S.A., priority 2021, dated 2025).
Counter-ions that a name gives are not always drawn. Like-named read-outs stand apart in the source and are kept apart here.

Target: full-length USP7 (Homo sapiens (Human), UniProt Q93009)
Assay: Enzymatic assay to determine IC50 of USP7 inhibitors (Ubiquitin-Rhodamine 110 cleavage)
Format: biochemical
Conditions: for inhibition at 1 µM: read-out: percent value of inhibition of USP7 activity; for IC50: 0.5 nM USP7, 0.5 μM Ubiquitin-Rhodamine 110, 45 min at 37° C.
Protocol: For the inhibitors disclosed herein, their potency was measured using the following method.
A 45 μl reaction volume containing full-length USP7 (0.5 nM) in 50 mM HEPES pH 7.5, 150 mM NaCl, 1 mM DTT, 1 mg/ml BSA and 0.05% Tween20 was assembled in wells of 96 well half area black flat bottom plates. Test compounds were first dissolved to 25 mM stocks in DMSO and subsequently introduced to enzyme 15 min after USP7 incubation with DTT at room temperature. The enzymatic reaction was started by adding 0.5 μM Ubiquitin-Rhodamine 110 (final concentration) and allowed to proceed for 45 min at 37° C., 250 RPM shaking before Rhodamine fluorescence (485 nm excitation/520 nm emission) was measured using Tecan Spark M10 plate reader.

[1] = at 1 μM of the test compound, given where IC50 not determined yet

full-length USP7, sequence (Q93009 whole entry): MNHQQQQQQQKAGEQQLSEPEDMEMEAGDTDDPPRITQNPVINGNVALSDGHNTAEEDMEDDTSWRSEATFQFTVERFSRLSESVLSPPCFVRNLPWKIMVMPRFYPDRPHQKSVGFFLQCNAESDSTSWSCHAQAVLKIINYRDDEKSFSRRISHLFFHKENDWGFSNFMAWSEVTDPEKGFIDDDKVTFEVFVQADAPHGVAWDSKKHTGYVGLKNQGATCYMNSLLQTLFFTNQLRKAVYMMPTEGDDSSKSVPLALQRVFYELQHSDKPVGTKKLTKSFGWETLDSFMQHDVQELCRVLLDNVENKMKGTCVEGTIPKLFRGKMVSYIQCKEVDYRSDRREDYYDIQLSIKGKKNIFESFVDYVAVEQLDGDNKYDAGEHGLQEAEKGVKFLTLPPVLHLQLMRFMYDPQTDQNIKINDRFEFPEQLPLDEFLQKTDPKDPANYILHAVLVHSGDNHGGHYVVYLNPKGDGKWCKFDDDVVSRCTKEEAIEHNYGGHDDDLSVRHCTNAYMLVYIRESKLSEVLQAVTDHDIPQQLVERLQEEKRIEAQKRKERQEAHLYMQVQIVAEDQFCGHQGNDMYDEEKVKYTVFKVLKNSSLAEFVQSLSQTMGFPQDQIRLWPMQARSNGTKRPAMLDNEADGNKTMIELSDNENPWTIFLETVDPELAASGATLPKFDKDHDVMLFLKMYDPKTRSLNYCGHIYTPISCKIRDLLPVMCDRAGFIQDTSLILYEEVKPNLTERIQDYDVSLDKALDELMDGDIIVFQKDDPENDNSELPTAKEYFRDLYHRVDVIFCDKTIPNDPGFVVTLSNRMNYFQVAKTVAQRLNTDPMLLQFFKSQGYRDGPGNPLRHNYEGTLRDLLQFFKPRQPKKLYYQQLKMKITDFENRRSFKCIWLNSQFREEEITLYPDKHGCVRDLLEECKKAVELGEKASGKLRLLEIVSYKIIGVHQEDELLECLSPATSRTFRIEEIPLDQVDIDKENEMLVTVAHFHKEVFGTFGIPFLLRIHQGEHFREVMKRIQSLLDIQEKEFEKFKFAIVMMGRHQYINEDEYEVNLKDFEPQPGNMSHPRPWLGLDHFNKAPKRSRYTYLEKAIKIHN

IC50 [µM]	inhibition at 1 µM [1] [%]	SMILES	other results
		CCc1nc(C(F)(F)F)cc(-c2ccnc3cc(CN4C(=O)C5C(C4=O)C5(C)C)sc23)c1NC(=O)C1CCNCC1 (centres unmarked) [Example 33, N-(4-(2-((6,6-dimethyl-2,4-dioxo-3-azabicyclo[3.1.0]hexan-3-yl)methyl)thieno[3,2-b]pyridin-7-yl)-2-ethyl-6-(trifluoromethyl)pyridin-3-yl)piperidine-4-carboxamide 2,2,2-trifluoroacetate]	inhibition at 1 µM: < 20%
< 0.5		Cc1cc(Cl)cc(-c2ccnc3cc(CN4C(=O)C5C(C4=O)C5(C)C)sc23)c1NC(=O)[C@H]1CCNC1 (stereo partly drawn) [Example 34, (3S)—N-(4-chloro-2-(2-((6,6-dimethyl-2,4-dioxo-3-azabicyclo[3.1.0]hexan-3-yl)methyl)thieno[3,2-b]pyridin-7-yl)-6-methylphenyl)pyrrolidine-3-carboxamide 2,2,2-trifluoroacetate]	
	< 20	Cc1cc(C(F)(F)F)nc(-c2ccnc3cc(CN4C(=O)C5C(C4=O)C5(C)C)sc23)c1Cn1cncn1 (centres unmarked) [Example 36, 3-((7-(3-((1H-1,2,4-triazol-1-yl)methyl)-4-methyl-6-(trifluoromethyl)pyridin-2-yl)thieno[3,2-b]pyridin-2-yl)methyl)-6,6-dimethyl-3-azabicyclo[3.1.0]hexane-2,4-dione hydrochloride]	
	< 20	Cc1cc(C(F)(F)F)nc(-c2ccnc3cc(CN4C(=O)C5C(C4=O)C5(C)C)sc23)c1CC1NC(=O)CNC1=O (centres unmarked) [Example 37, 3-((7-(3-((3,6-dioxopiperazin-2-yl)methyl)-4-methyl-6-(trifluoromethyl)pyridin-2-yl)thieno[3,2-b]pyridin-2-yl)methyl)-6,6-dimethyl-3-azabicyclo[3.1.0]hexane-2,4-dione hydrochloride]	
	< 20	Cc1cc(C(F)(F)F)nc(-c2ccnc3cc(CN4C(=O)C5C(C4=O)C5(C)C)sc23)c1CN1CCOCC1=O (centres unmarked) [Example 38, 6,6-dimethyl-3-((7-(4-methyl-3-((3-oxomorpholino)methyl)-6-(trifluoromethyl)pyridin-2-yl)thieno[3,2-b]pyridin-2-yl)methyl)-3-azabicyclo[3.1.0]hexane-2,4-dione hydrochloride]	
	20 to 49	Cc1cc(C(F)(F)F)nc(-c2ccnc3cc(CN4C(=O)C5C(C4=O)C5(C)C)sc23)c1CN1CCCC1=O (centres unmarked) [Example 39, 6,6-dimethyl-3-((7-(4-methyl-3-((2-oxopyrrolidin-1-yl)methyl)-6-(trifluoromethyl)pyridin-2-yl)thieno[3,2-b]pyridin-2-yl)methyl)-3-azabicyclo[3.1.0]hexane-2,4-dione dihydrochloride]	
	20 to 49	Cc1cc(C(F)(F)F)nc(-c2ccnc3cc(CN4C(=O)C5C(C4=O)C5(C)C)sc23)c1CN1CCNCC1=O (centres unmarked) [Example 40, 6,6-dimethyl-3-((7-(4-methyl-3-((2-oxopiperazin-1-yl)methyl)-6-(trifluoromethyl)pyridin-2-yl)thieno[3,2-b]pyridin-2-yl)methyl)-3-azabicyclo[3.1.0]hexane-2,4-dione dihydrochloride]	
	< 20	Cc1cc(C(F)(F)F)nc(-c2ccnc3cc(CN4C(=O)C5C(C4=O)C5(C)C)sc23)c1CN1CCN(C)CC1=O (centres unmarked) [Example 41, 6,6-dimethyl-3-((7-(4-methyl-3-((4-methyl-2-oxopiperazin-1-yl)methyl)-6-(trifluoromethyl)pyridin-2-yl)thieno[3,2-b]pyridin-2-yl)methyl)-3-azabicyclo[3.1.0]hexane-2,4-dione dihydrochloride]	
	< 20	Cc1cc(C#N)nc(-c2ccnc3cc(CN4C(=O)C5C(C4=O)C5(C)C)sc23)c1C(=O)N(C)CCN(C)C (centres unmarked) [Example 42, 6-cyano-2-(2-((6,6-dimethyl-2,4-dioxo-3-azabicyclo[3.1.0]hexan-3-yl)methyl)thieno[3,2-b]pyridin-7-yl)-N-(2-(dimethylamino)ethyl)-N,4-dimethylnicotinamide]	
	50 to 70	Cc1cc(C#N)nc(-c2ccnc3cc(CN4C(=O)C5C(C4=O)C5(C)C)sc23)c1C(=O)N1CC(N(C)C)C1 (centres unmarked) [Example 43, 6-(2-((6,6-dimethyl-2,4-dioxo-3-azabicyclo[3.1.0]hexan-3-yl)methyl)thieno[3,2-b]pyridin-7-yl)-5-(3-(dimethylamino)azetidine-1-carbonyl)-4-methylpicolinonitrile]	
1 to 10		Cc1cc(C#N)nc(-c2ccnc3cc(CN4C(=O)C5C(C4=O)C5(C)C)sc23)c1C(=O)N1CC[C@H](N(C)C)C1 (stereo partly drawn) [Example 44, 6-(2-((6,6-dimethyl-2,4-dioxo-3-azabicyclo[3.1.0]hexan-3-yl)methyl)thieno[3,2-b]pyridin-7-yl)-5-((S)-3-(dimethylamino)pyrrolidine-1-carbonyl)-4-methylpicolinonitrile hydrochloride]	
	< 20	Cc1ccnc(-c2ccnc3cc(CN4C(=O)C5C(C4=O)C5(C)C)sc23)c1C(=O)N1CCNCC1 (centres unmarked) [Example 45, 6,6-dimethyl-3-((7-(4-methyl-3-(piperazine-1-carbonyl)pyridin-2-yl)thieno[3,2-b]pyridin-2-yl)methyl)-3-azabicyclo[3.1.0]hexane-2,4-dione hydrochloride]	
	< 20	Cc1ccnc(-c2ccnc3cc(CN4C(=O)C5C(C4=O)C5(C)C)sc23)c1CN1CCNCC1 (centres unmarked) [Example 46, 6,6-dimethyl-3-((7-(4-methyl-3-(piperazin-1-ylmethyl)pyridin-2-yl)thieno[3,2-b]pyridin-2-yl)methyl)-3-azabicyclo[3.1.0]hexane-2,4-dione hydrochloride]	
	< 20	Cc1ccnc(-c2ccnc3cc(CN4C(=O)C5C(C4=O)C5(C)C)sc23)c1C(=O)N1CCOCC1 (centres unmarked) [Example 48, 6,6-dimethyl-3-((7-(4-methyl-3-(morpholine-4-carbonyl)pyridin-2-yl)thieno[3,2-b]pyridin-2-yl)methyl)-3-azabicyclo[3.1.0]hexane-2,4-dione hydrochloride]	
	< 20	Cc1ccnc(-c2ccnc3cc(CN4C(=O)C5C(C4=O)C5(C)C)sc23)c1C(=O)N1CCC(F)(F)C1 (centres unmarked) [Example 49, 3-((7-(3-(3,3-difluoropyrrolidine-1-carbonyl)-4-methylpyridin-2-yl)thieno[3,2-b]pyridin-2-yl)methyl)-6,6-dimethyl-3-azabicyclo[3.1.0]hexane-2,4-dione hydrochloride]	
	< 20	Cc1ccnc(-c2ccnc3cc(CN4C(=O)C5C(C4=O)C5(C)C)sc23)c1C(=O)N1CC(F)(F)C1 (centres unmarked) [Example 50, 3-((7-(3-(3,3-difluoroazetidine-1-carbonyl)-4-methylpyridin-2-yl)thieno[3,2-b]pyridin-2-yl)methyl)-6,6-dimethyl-3-azabicyclo[3.1.0]hexane-2,4-dione hydrochloride]	
< 0.5		Cc1cc(C#N)nc(-c2ccnc3cc(CN4C(=O)C5C(C4=O)C5(C)C)sc23)c1C(=O)N1CC(F)(F)C1 (centres unmarked) [Example 51, 5-(3,3-difluoroazetidine-1-carbonyl)-6-(2-((6,6-dimethyl-2,4-dioxo-3-azabicyclo[3.1.0]hexan-3-yl)methyl)thieno[3,2-b]pyridin-7-yl)-4-methylpicolinonitrile hydrochloride]	
< 0.5		Cc1cc(C#N)nc(-c2ccnc3cc(CN4C(=O)C5C(C4=O)C5(C)C)sc23)c1C(=O)N1CCN(C)C[C@@H]1C (stereo partly drawn) [Example 52, 6-(2-((6,6-dimethyl-2,4-dioxo-3-azabicyclo[3.1.0]hexan-3-yl)methyl)thieno[3,2-b]pyridin-7-yl)-5-((S)-2,4-dimethylpiperazine-1-carbonyl)-4-methylpicolinonitrile dihydrochloride]	
1 to 10		Cc1cc(C#N)nc(-c2ccnc3cc(CN4C(=O)C5C(C4=O)C5(C)C)sc23)c1C(=O)N1CCNC(C)(C)C1 (centres unmarked) [Example 53, 6-(2-((6,6-dimethyl-2,4-dioxo-3-azabicyclo[3.1.0]hexan-3-yl)methyl)thieno[3,2-b]pyridin-7-yl)-5-(3,3-dimethylpiperazine-1-carbonyl)-4-methylpicolinonitrile hydrochloride]	
0.5 to 1		Cc1cc(C#N)nc(-c2ccnc3cc(CN4C(=O)C5C(C4=O)C5(C)C)sc23)c1C(=O)N1CCNC[C@H]1C (stereo partly drawn) [Example 54, 6-(2-((6,6-dimethyl-2,4-dioxo-3-azabicyclo[3.1.0]hexan-3-yl)methyl)thieno[3,2-b]pyridin-7-yl)-4-methyl-5-((R)-2-methylpiperazine-1-carbonyl)picolinonitrile hydrochloride]	
< 0.5		Cc1cc(C#N)nc(-c2ccnc3cc(CN4C(=O)C5C(C4=O)C5(C)C)sc23)c1C(=O)N1CCNCC1 (centres unmarked) [Example 55, 6-(2-((6,6-dimethyl-2,4-dioxo-3-azabicyclo[3.1.0]hexan-3-yl)methyl)thieno[3,2-b]pyridin-7-yl)-4-methyl-5-(piperazine-1-carbonyl)picolinonitrile hydrochloride]	
1 to 10		Cc1cc(C#N)nc(-c2ccnc3cc(CN4C(=O)C5C(C4=O)C5(C)C)sc23)c1C(=O)NC1CNC1 (centres unmarked) [Example 56, N-(azetidin-3-yl)-6-cyano-2-(2-((6,6-dimethyl-2,4-dioxo-3-azabicyclo[3.1.0]hexan-3-yl)methyl)thieno[3,2-b]pyridin-7-yl)-4-methylnicotinamide hydrochloride]	
	< 20	Cc1cc(C#N)nc(-c2ccnc3cc(CN4C(=O)C5C(C4=O)C5(C)C)sc23)c1C(=O)NC1CC(F)(F)C1 (centres unmarked) [Example 57, 6-cyano-N-(3,3-difluorocyclobutyl)-2-(2-((6,6-dimethyl-2,4-dioxo-3-azabicyclo[3.1.0]hexan-3-yl)methyl)thieno[3,2-b]pyridin-7-yl)-4-methylnicotinamide hydrochloride]	
